# Measured values taken from US11701433B2, “Complexes for delivery of antigenic peptides” (The Regents of the University of Michigan, priority 2017, dated 2023).
# How the values were obtained:
# STING = test: Immunoblot of STING protein level in SOX2-expressing cells treated with inhibitors of autophagy; type: cell-based; conditions: HEK-293T and UMSCC22b cells
# Procedure: Cell culture: UMSCC22b and UMSCC47 were obtained from the U-M Head and Neck Cancer SPORE. PCI-13 was obtained from the University of Pittsburgh Head and Neck Cancer SPORE. HEK-293T was purchased from ATCC. The human HNSCC cells and HEK293T cells were maintained in complete DMEM medium. The MOC2-E6/E7 cells were obtained from Dr. David Mooney at Harvard University, the parental and derivative cell lines were cultured in 30% F12 nutrient mix (Thermo Fisher Scientific, Waltham, Mass.), 5% FBS, puromycin […], insulin (4 mg/ml), hydrocortisone (200 ug/ml), EGF (100 ug/ml) and penicillin (100 U/ml) and streptomycin […]. THP1-blue ISG cells (Cat. thp-isg, InvivoGen, San Diego, Calif.) were cultured in RPMI media supplemented with 10% FBS, 1% penicillin, streptomycin, Normocin and Zeocin. NK cells, T cells, and tumor-infiltrating lymphocytes were cultured in complete RPMI 1640 medium. Peripheral blood monocytes were separated from healthy volunteers using Ficoll-Paque gradient. Primary human NK and CD8^+ T cells were separated using a NK cell enrichment kit and a CD8^+ T cell enrichment kit, respectively (Cat. 19055 and Cat. 19053, […] Technologies Inc, Cambridge, Mass.). All cells were cultured in 37° C. incubator with 5% CO2. […] Tumors were measured every other day using a caliper, and the tumor volume was calculated as 0.52×length×width^2. […]
# MOC2-E6/E7 tumors = test: Real time PCR of Ifna4 and Ifnb1 in tumor homogenates; type: in vivo, C57BL/6 mice; conditions: R9F/Q15L study, tumors harvested 25 days post-implantation
# Procedure: Experimental animals and treatments: Female C57BL6 mice, aged 6-8 weeks, were purchased from the Jackson Laboratory, and maintained in a pathogen-free facility at the University of Michigan. All animal work were done in accordance with and approved by the Institutional Animal Care & Use Committee (IACUC) at the University of Michigan, Ann Arbor. Syngeneic squamous cell carcinoma cells were implanted subcutaneously at the neck. Tumors were measured every other day using a caliper, and the tumor volume was calculated as 0.52×length×width^2. […] To test the efficacy of the vaccine formulations, MOC2-E6/E7 cells were implanted subcutaneously on the back of the neck on day 0. […] Anti-PD-L1 (100 μg/100 μl) (clone B7H1, BioXCell, West Lebanon, N.H.) was administered through intraperitoneal injection on day 1 and 4 after each vaccination.
Compound,SOX2-induced decrease in STING protein level (STING),production of Ifna4 and Ifnb1 in tumors (MOC2-E6/E7 tumors)
CO/C1=C\C(C)=C\[C@@H](C)[C@@H](O)[C@@H](C)C/C(C)=C/C=C/[C@H](OC)[C@@H]([C@@H](C)[C@@H](O)[C@H](C)[C@@]2(O)C[C@@H](O)[C@H](C)[C@@H](C(C)C)O2)OC1=O [bafilomycin A],partially restored,–
cyclic GMP-AMP [cGAMP],–,modest effect
CCN(CC)CCCC(C)Nc1ccnc2cc(Cl)ccc12 (stereo not drawn) [chloroquine],partially restored,–
